From US6518315B1, “Medicinal uses of phenylaikanols and derivatives” (The University of Sydney, priority 1997, dated 2003)
Each block holds one compound with its values, some of them ahead of it.

Tests used:
rat mesenteric artery = assay: Vasodilation on rat mesenteric artery; conditions: for potency in relaxing rat mesenteric artery / vascular bed, in words: preliminary investigation
Description: The proposed mechanism of neuropeptide release by 1-(4-hydroxy-3-methoxyphenyl)dodecan-3-ol, similar to that of capsaicin, was supported by studies in blood vessels. […] This contrasts with capsaicin which has similar activity in Guinea pig atria (force and rate) and relaxing rat mesenteric artery.

[1] = tested on: capsaicin-sensitive DRG neuronal cells; assay: [Ca^2+]i transients in DRG neuronal cells in culture; type: cell-based, rat; conditions: for Peak [Ca^2+]i (Average ± SD): 10 μM applied for 1 min, 2 mM Ca^2+
Description: Effect of Gingerol Analogues Towards Rat Dorsal Root Ganglia
Capsaicin, the pungent component in peppers of the Capsicum genus, family Solanaceae, has the ability to excite a subset of sensory neurons, which include polymodal nociceptors and warm thermoceptors (Fitzgerald, 1983) by opening non-selective cation channels that are permeable to Na^+, K^+, and Ca^2+ (Bevan and Szolcsanyi, 1990). It has been shown that capsaicin evoked a concentration-dependent rise in [Ca^2+]i in cultured dorsal root ganglion neurons. The duration of the elevation of [Ca^2+]i depended on the concentration of capsaicin (Choleswinski, et al., 1993). In this investigation peak [Ca^2+]i transient measurements are used as a model for testing gingerol analogues.
DRG from neonatal (3-5 days old) rat or adult Sprague-Dawley rats were incubated in Hanks CMF saline with 0.05% collagenase and 0.25% trypsin for 25 min at 37° C. Individual cells were obtained by trituration with fire polished Pasteur pipettes of diminishing diameters. Neurones were isolated from the cell suspension in 30% Percoll and then plated on collagen coated coverslips or in 24-well plates, then cultured in neurobasal medium with B27 supplement, 50 ng/ml 2.5 S nerve growth factor, 2 mM 1-glutamine and 100 U/ml penicillin/streptomycin. Cultures were maintained at 37° C. with 5% CO2. 30% Percoll increases the percentage of capsaicin-sensitive DRG neurones up to 70%. For peak [Ca^2+]i transients measurements, cells on coverslips were incubated with 5 μM Fura-2 AM for 30 min at 37° C. The coverslips were then mounted on a chamber attached to a fast sample application perfusion system which allows changing solutions in the second range. Recordings were made on the stage of a Nikon Diaphot inverted microscope fitted with a Nikon 40×Fluo (NA 0.85) DL Ph3 or 40×Fluo (NA 1.3) oil objective. [Ca^2+]i was calculated from dual excitation wavelength (340/380 nm) fluorescence measurements following an intracellular calibration procedure by the Grynkiewicz equation, using MCID M2/M4 v.3.0 (Imaging Res. Inc.) software. Cells were continuously perfused with a solution consisting of 140 mM NaCl, 2 mM CaCl2, 5 mM KCl, 20 mM HEPES, 10 mM glucose, pH 7.4. To study KCl evoked depolarisation, 50 mM NaCl was replaced by equimolar KCl. Cytoplasmic localisation of Fura-2 was tested with the Mn^2+ quenching technique (Dedov and Roufogalis, 1998). All experiments were performed at room temperature (20-23° C.).
Typical changes in [Ca^2+]i upon depolarisation were evoked by 50 mM KCl and by application of 1 μM capsaicin; both were applied for 30 sec. Capsaicin-evoked peak [Ca^2+]i transients are characterised by a fast rise and long-steady state [Ca^2+]i clearance from the cytoplasm. In capsaicin-sensitive cells the half-time of cytoplasmic Ca^2+ clearance was proportional to the amplitudes of peak [Ca^2+]i transients.
To examine the effect of gingerol derivatives, one or several compounds in succession at a concentration of 10 μM were applied for 1 min to the DRG neuronal cells followed by washing out for 4 min with physiological solution. To the capsaicin-sensitive cells, 10 μM capsaicin and 50 mM KCl were applied, respectively, to confirm the viability of the cells. In addition, morphological appearances of the cells were also examined at the end of experiment. […]

[2] = tested on: brine shrimp (Artemia salina Leach); assay: Brine shrimp assay; type: in vivo
Description: Toxicity—Brine Shrimp Assay
The brine shrimp assay procedure determines LC50 values of active compounds. Activities of a broad range of known active compounds are manifested as toxicity to brine shrimp (Artemia salina Leach). There are many applications of the assay including analysis of toxic substances, anaesthetics, morphine-like substances and cocarcinogenicity of phorbol esters.
DMSO (dimethyl sulfoxide) was the solvent of choice because of its good solubilising properties and also because the substances used in the ATPase inhibition assays were already prepared with DMSO.
The method for testing solvent toxicity used was basically that reported by J L McLaughlin in Methods of Plant Biochemistry (1991), vol. 6 (K Hostettman, ed.), Academic Press, London, 1-32. DMSO solutions of the substances to be tested were added directly to the vials containing the brine shrimp. As the concentration of DMSO is that we wished to use was higher than the recommended 1% v/v testing of the toxicity of the DMSO was therefore necessary. The concentrations of DMSO tested on the shrimp, along with the results from the assay which was done in duplicate are listed below.
Brine shrimp toxicity was assayed, except for some minor modifications, according to the method of McLaughlin et al as reported in Brine Shrimp: A convenient bioassay for active plant constituents, B N Meyer, N R Ferrigni, J E Putnam, L B Jacobsen, D E Nichols and J L McLaughlin in Planta Medica (1982), 45, 31-34 and Crown gall tumours on potato discs and brine shrimp lethality: Two simple bioassays for higher plant screening and fractionation. J L McLaughlin. Methods of Plant Biochemistry (1991), vol. 6 (K Hostettman, ed.), Academic Press, London, 1-32. Ten shrimp were transferred to each of the vials and the volume adjusted to 4.9 mL. Each dose was performed in triplicate, including the control. In quick succession, the appropriate volume of additional DMSO for each dose, required to achieve a final concentration of 2%, was added before the appropriate volume of test solution. The vials were gently mixed and the time noted. After 24 hours, the number of survivors were counted and % mortality was determined. The test compounds were assayed at concentrations of 100 μM, 25 μM, 5 μM, 1 μM and 0.2 μM (and where appropriate concentrations of 0.04 μM and 0.008 μM).
The brine shrimp were able to survive without food in the vials over the 24 hour period and were therefore not fed.
The dose-response curves were constructed using the Sigmaplot computer program and the LC50 value was calculated from the intersection point of the curve and the 50% mortality line. The LC50 values were expressed in both μM and μg/mL.
For substances with low toxicity, the greater sign “>” indicated the highest concentration at which the assay was carried out as precipitation of the substances occurred above that concentration.

guinea pig atria = assay: Organ bath assay, isolated guinea pig atria (rate and force of contraction)
Protocol: Male guinea pigs, 3-4 weeks old, were killed by rapid cervical dislocation without induced anaesthesia. Then, the guinea pigs were dissected to isolate the atria which were immediately mounted vertically in an organ bath containing Krebs-Henseleit solution oxygenated with carbogen.
One gram tension was applied to the atria and the base line continuously adjusted until it was stable for 20 mins. The rate and force of contraction were recorded using Mac Lab equipment.
Test substances in DMSO were assayed to a maximum concentration of 50 μM at a final concentration of 2.5% of DMSO.

cardiac Purkinje fibres = assay: Cardiac electrophysiology on Purkinje fibres; design: species or system dog; conditions: up to 10 μM
Protocol: Cardiac Electrophysiological Activities of Gingerol and its Analogue
The basic cardiac electrophysiological properties were assessed using cardiac Purkinje fibres obtained from adult mongrel dogs.
Electrophysiology was carried out on dog heart purkinje fibre to test for potential arrhythmia. […] At high concentration (50 μM), however, [8]-gingerol reduced approximate 80% and 50% of action potential duration at 50% and 90% repolarisations respectively. Whereas the analogue reduced 75% and 30% respectively.

[3] = molecular target: T1, Ca^2+-ATPase of dog cardiac SR (Canis lupus familiaris, UniProt O46674); assay: Sarcoplasmic reticulum Ca^2+-ATPase assay; type: biochemical; conditions: 0 μM = 100
T1 construct: SR membrane (75 μg/ml): 24 μl; from tissue; host or cells: dog cardiac sarcoplasmic reticulum membranes
T1 sequence (O46674 whole entry): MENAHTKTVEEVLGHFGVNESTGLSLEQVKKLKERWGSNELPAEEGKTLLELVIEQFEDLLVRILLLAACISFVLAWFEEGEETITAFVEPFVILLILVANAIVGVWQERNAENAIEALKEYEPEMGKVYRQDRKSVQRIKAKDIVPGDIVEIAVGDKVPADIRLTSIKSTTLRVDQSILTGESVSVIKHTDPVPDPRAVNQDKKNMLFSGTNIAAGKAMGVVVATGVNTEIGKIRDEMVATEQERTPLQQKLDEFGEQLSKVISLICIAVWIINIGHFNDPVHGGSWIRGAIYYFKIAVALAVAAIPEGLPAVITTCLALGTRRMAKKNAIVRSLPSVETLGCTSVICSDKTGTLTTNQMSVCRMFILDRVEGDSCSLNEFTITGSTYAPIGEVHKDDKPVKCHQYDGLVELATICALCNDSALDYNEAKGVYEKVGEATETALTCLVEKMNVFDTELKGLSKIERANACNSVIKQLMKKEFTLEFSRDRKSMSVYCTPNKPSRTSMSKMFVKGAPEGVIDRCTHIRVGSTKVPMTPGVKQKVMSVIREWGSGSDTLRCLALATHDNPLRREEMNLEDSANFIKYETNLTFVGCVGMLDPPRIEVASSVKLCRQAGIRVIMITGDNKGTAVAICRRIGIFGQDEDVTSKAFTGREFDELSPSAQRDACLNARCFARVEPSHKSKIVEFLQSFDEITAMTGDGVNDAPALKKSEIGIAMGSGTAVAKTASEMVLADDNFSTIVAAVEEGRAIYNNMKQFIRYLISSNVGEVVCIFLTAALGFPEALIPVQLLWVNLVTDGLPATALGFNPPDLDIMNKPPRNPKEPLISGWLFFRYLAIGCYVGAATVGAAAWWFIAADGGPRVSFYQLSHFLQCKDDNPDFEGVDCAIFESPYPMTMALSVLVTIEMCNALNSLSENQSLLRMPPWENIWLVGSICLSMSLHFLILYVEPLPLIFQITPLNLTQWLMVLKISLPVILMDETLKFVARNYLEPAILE
Protocol: A. Sarcoplasmic Reticulum Ca^2+-ATPase Assay
SR membrane (75 μg/ml): 24 μl
Test substance: appropriate volumes to give a dose-effect concentration
Incubation buffer: up to 240 μl
A portion at each concentration (54 μl) was aliquoted into 4 designated wells of the microplate (two of four wells were controls). Each well was mixed with ATP solution (20 mM, 6 μl), except the controls, using an 8 channel pipette. The controls were assayed in the absence of ATP or calcium.
The plate was incubated with the lid on, for 30 min at 37° C., colour reagent (160 μl) was then added and mixed with citrate solution (34%, 30 μl). The plate was developed at room temperature for 30 min then absorbance at 655 nm was read from the microplate reader. The Ca^2+-ATPase activity was quantitated, from a Pi standard curve, as concentration of liberated inorganic phosphate.
Stock solutions (10 mM) of test substance were prepared in DMSO, then series dilutions were made either in DMSO or in 1M HEPES to produce the dose-response concentrations. The maximum concentration of DMSO in the final assay solution was 2.5%.
Each concentration of test substance was assayed in duplicate in the presence and absence of ATP or calcium. Phosphate standards are run on each plate as follows:
Effect of gingerols and their derivatives on the Ca^2+-ATPase of dog cardiac SR.

EC50 (rat mesenteric artery; Rattus norvegicus, arteries 200-300 μm, precontracted with endothelin, read-out: EC50, relaxation of small arteries from rat mesentery): 500 nM
Structure (SMILES): CCCCCCCCCC(O)CCc1ccc(O)c(OC)c1 (single isomer, unassigned) [enantiomer-1, 1-(4-hydroxy-3-methoxyphenyl)dodecan-3-ol]

Structure (SMILES): COc1cc(CNC(=O)CCCC/C=C/C(C)C)ccc1O [Capsaicin, reference compound]
evoked [Ca^2+]i transients in Ca^2+-free medium or with ruthenium red ([1]; Ca^2+-free medium or ruthenium red (1 μM)): abolished or greatly diminished

Structure (SMILES): CCCCCCCC(=O)CC(O)CCc1ccc(O)c(OC)c1 (centres unmarked) [3-hydroxy-1-(4-hydroxy-3-methoxyphenyl)dodecan-5-one]
potency in relaxing rat mesenteric artery / vascular bed, in words (rat mesenteric artery): showed potency

Structure (SMILES): C[S+](C)[O-] [DMSO, dimethyl sulfoxide]
% Deaths ([2]; 1 % v/v): 0%
% Deaths ([2]; 2 % v/v): 0%
% Deaths ([2]; 3 % v/v): 0%
% Deaths ([2]; 4 % v/v): 0%
% Deaths ([2]; 5 % v/v): 9%
% Deaths ([2]; 7 % v/v): 12%
% Deaths ([2]; 9 % v/v): 18%
% Deaths ([2]; 11 % v/v): 57%
% Deaths ([2]; 13 % v/v): 96%
% Deaths ([2]; 15 % v/v): 100%
% Deaths ([2]; 20 % v/v): 100%
% Deaths ([2]; 25 % v/v): 100%

Structure (SMILES): CCCCCCCC(O)CC(=O)CCc1ccc(O)c(OC)c1 (centres unmarked) [[8]-gingerol, 5-hydroxy-1-(4-hydroxy-3-methoxyphenyl)dodecan-3-one, reference compound]
time to increased cardiac contractility after addition of the drug (guinea pig atria): 15 s
effect on rate of depolarization, amplitude and duration of action potential (50% and 90%) (cardiac Purkinje fibres): insignificant effect

melting point: 78 to 80 °C
Structure (SMILES): CCCCCCCCCC(O)C(=O)c1ccc(O)c(OC)c1 (centres unmarked) [2-hydroxy-1-(4-hydroxy-3-methoxyphenyl)undecan-1-one]

Structure (SMILES): CCCCCCCCC(C)(O)CCc1ccc(O)c(OC)c1 (centres unmarked) [3-methyl-1-(4-hydroxy-3-methoxyphenyl)undecan-3-ol]
Peak [Ca^2+]i (Average ± SD) [1]: 0 nM

Structure (SMILES): CCCCCCCCCC(=O)CCc1ccc(O)c(OC)c1 [[8]-paradol, 1-(4-hydroxy-3-methoxyphenyl)dodecan-3-one, reference compound]
Peak [Ca^2+]i (Average ± SD) [1]: 200 nM
potency in relaxing rat mesenteric artery / vascular bed, in words (rat mesenteric artery): showed potency

Structure (SMILES): CCCCCCCC(O)CC(=O)CCc1ccc2c(c1)OCO2 (centres unmarked) [5-hydroxy-1-(3,4-methylenedioxyphenyl)dodecan-3-one]
potency in relaxing rat mesenteric artery / vascular bed, in words (rat mesenteric artery): showed potency

Structure (SMILES): C[C@H]1O[C@@H](O[C@H]2[C@@H](O)C[C@H](O[C@H]3[C@@H](O)C[C@H](O[C@H]4CC[C@@]5(C)[C@H](CC[C@@H]6[C@@H]5C[C@@H](O)[C@]5(C)[C@@H](C7=CC(=O)OC7)CC[C@]65O)C4)O[C@@H]3C)O[C@@H]2C)C[C@H](O)[C@@H]1O [digoxin, reference compound]
time for tension to reach maximum after addition of a dose (guinea pig atria): a few mins

SR Ca^2+-ATPase activity ([3]; 5 μM): 113
SR Ca^2+-ATPase activity ([3]; 10 μM): 136
SR Ca^2+-ATPase activity ([3]; 25 μM): 158
SR Ca^2+-ATPase activity ([3]; 50 μM): 126
SR Ca^2+-ATPase activity ([3]; 100 μM): 87
SR Ca^2+-ATPase activity ([3]; 200 μM): 18
Structure (SMILES): CCCCCCCC(=O)CCCCc1ccc(O)c(OC)c1 [1-(4-hydroxy-3-methoxyphenyl)dodecan-5-one]

Structure (SMILES): CCCCCCCC(O)CCCCc1ccc(O)c(OC)c1 (centres unmarked) [1-(4-hydroxy-3-methoxyphenyl)dodecan-5-ol]
Peak [Ca^2+]i (Average ± SD) [1]: 0 nM
HEART RATE (chronotropic activity), result in words (guinea pig atria; assayed to a maximum of 50 μM): ↑weakly

Structure (SMILES): CCCCCCCC(O)CC(=O)C=Cc1ccc(O)c(OC)c1 (centres unmarked) [[8]-dehydrogingerol, 5-hydroxy-1-(4-hydroxy-3-methoxyphenyl)dodecan-1-ene-3-one, reference compound]
time for tension to reach maximum after addition of a dose (guinea pig atria): a few mins
